Each structure is given as a SMILES string. pIC50: −log10 of the molar value.

This assay concerns the target T1, soluble epoxide hydrolase (sEH) (Homo sapiens, UniProt P34913).
T1 sequence (P34913 1-555): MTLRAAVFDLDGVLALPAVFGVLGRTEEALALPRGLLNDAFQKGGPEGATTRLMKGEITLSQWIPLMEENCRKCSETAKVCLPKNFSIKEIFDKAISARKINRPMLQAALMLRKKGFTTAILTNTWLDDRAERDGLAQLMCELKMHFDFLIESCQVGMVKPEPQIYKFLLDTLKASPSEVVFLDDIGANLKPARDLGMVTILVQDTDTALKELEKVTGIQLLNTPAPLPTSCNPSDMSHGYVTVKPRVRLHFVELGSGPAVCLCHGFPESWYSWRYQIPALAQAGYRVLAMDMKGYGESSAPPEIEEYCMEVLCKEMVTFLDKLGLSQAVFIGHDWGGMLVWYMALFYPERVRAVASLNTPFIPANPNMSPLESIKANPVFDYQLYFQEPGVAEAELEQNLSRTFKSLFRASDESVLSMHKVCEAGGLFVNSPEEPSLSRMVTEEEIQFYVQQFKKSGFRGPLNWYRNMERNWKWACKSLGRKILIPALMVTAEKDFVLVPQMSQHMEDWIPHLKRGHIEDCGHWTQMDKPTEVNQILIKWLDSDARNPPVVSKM
Put plainly: in vitro biochemical activity test, sEH enzyme inhibition with EET substrate (LC-MS). Conditions: 90 min pre-incubation at room temperature, 60 min reaction. On the procedure: This example relates to the relationship between the structure and activity of (hetero)aryl imidazole compounds containing an aromatic substituent. Specifically, the biochemical activity of the (hetero)aryl imidazole compounds containing an aromatic substituent described in Example 1 as sEH enzyme inhibitors was evaluated by in vitro activity test experiments.
The experimental procedures for evaluating in vitro biochemical activity were described below.
The substrate used in the evaluation experiment was epoxyeicosatrienoic acid (EET). The solutions used in the evaluation experiments were Bis/Tris HCl 25 mM pH 7.0, Bis/Tris HCl 25 mM pH 7.0 containing 0.1 mg/mL BSA was used as buffer A, and Bis/Tris HCl 25 mM pH 7.0 containing 36.3 mM ZnSO4 was used as buffer B.
The specific steps of the evaluation experiment were as follows. 79 μL of buffer A was added to each well in a black 96-well plate and then 1 μL solution of the aromatic substituent-containing (hetero)aryl imidazole compound was added. Then, 10 μL sEH (1 μM) buffer A solution was added to the wells. After pre-incubation at room temperature for 90 min, 10 μL EET (10 μM) buffer A solution was added to trigger the reaction. After the mixture was allowed to react […] for 60 min, 15 μL buffer B and 180 μL acetonitrile were added to quench the reaction, followed by high-speed centrifugation and filtration for later use.
LC-MS was used to detect the concentration of EET in the samples. The final IC50 was calculated based on three independent experiments using Graphpad Prism software.
Usually pIC50 stands for the IC50 on a negative log10 scale, so that one unit is a factor of ten. Lower therefore signals a large IC50. Regarding `Cc1nc(N(C)C)ncc1-c1cc2nc(-c3ccc(C(F)(F)F)cc3)[nH]c2cc1F` [Compound 9, 5-(5-fluoro-2-(4-(trifluoro-methyl)phenyl)-1H-benzo[d]imidazol-6-yl)-N,N,4-trimeth-ylpyrimidine-2-amine], the pIC50 was 9.96. With `Nc1cc(C(F)F)c(-c2cc3[nH]c(-c4ccc(C(F)(F)F)cc4)nc3c(F)c2F)cn1` [Compound 77, 2-(4-(trifluoromethyl)phenyl)-6-(4-(difluoromethyl)-6-amino-pyridin-3-yl)-4,5-difluoro-1H-benzo[d]imidazole] the figure was 10.33; with `Cc1ccc(-c2cc3nc(-c4ccc(C(=O)N5CCC[C@@H](C(N)=O)C5)cc4)[nH]c3cc2F)c(Cl)n1` [Compound 3, (R)-1-(4-(6-(2-chloro-6-meth-ylpyridin-3-yl)-5-fluoro-1H-benzo[d]imidazol-2-yl)benzo-yl)piperidine-3-carboxamide], 8.12; with `CN(C)S(=O)(=O)c1ccc(-c2nc3cc(F)c(-c4cnc(N)nc4C(F)F)cc3[nH]2)cc1` [Compound 51, 4-(6-(4-(difluoromethyl)-2-aminopyrimid-5-yl)-5-fluoro-1H-benzo[d]imidazol-2-yl)-N,N-dimethylbenzenesulfon-amide], 10.80. With `COc1nc(C)ncc1-c1cc2nc(-c3ccc(S(=O)(=O)N(C)C)cc3)[nH]c2cc1F` [Compound 32, 4-(5-fluoro-6-(4-methoxy-2-methylpyrimid-5-yl)-1H-benzo[d]imidazol-2-yl)-N,N-dimethylbenzenesulfonamide] the figure was 9.89.

On to `CC(C)n1nccc1-c1cc2nc(-c3ccc(S(=O)(=O)N(C)C)cc3)[nH]c2c(F)c1F` [Compound 25, 4-(4,5-difluoro-6-(1-isopropyl-1H-pyrazol-5-yl)-1H-benzo[d]imidazol-2-yl)-N,N-dimethyl-benzenesulfonamide], for which the pIC50 was 10.35. `Cc1ncc(-c2cc3nc(-c4ccc(S(=O)(=O)N(C)C)cc4)[nH]c3cc2Cl)c(Cl)n1` [Compound 30, 4-(5-chloro-6-(4-chloro-2-methylpyrimid-5-yl)-1H-benzo [d]imidazol-2-yl)-N,N-dimeth-ylbenzenesulfonamide] showed a pIC50 of 10.00. With `Cc1nn(C(F)F)cc1-c1cc2[nH]c(-c3ccc(C(F)(F)F)cc3)nc2c(F)c1F` [Compound 76, 2-(4-(trifluoromethyl)phenyl)-6-(3-methyl-1-(difluorometh-yl)-1H-pyrazol-4-yl)-4,5-difluoro-1H-benzo[d]imidazole] the figure was 10.09; with `Fc1cc2[nH]c(-c3ccc(C(F)(F)F)cc3)nc2cc1-c1cnc(N2CCOCC2)nc1` [Compound 16, 4-(5-(5-fluoro-2-(4-(trifluoro-methyl)phenyl)-1H-benzo[d]imidazol-6-yl)pyrimidine-2-yl)morpholine], 9.85. The compound `Nc1ncc(-c2cc3[nH]c(-c4ccc(C(F)(F)F)cc4)nc3c(F)c2F)c(C(F)F)n1` [Compound 68, 5-(2-(4-(trifluoromethyl)phen-yl)-4,5-difluoro-1H-benzo[d]-imidazol-6-yl)-4-(difluoro-methyl)pyrimidine-2-amine] gave a negative-log IC50 (pIC50) of 10.05.

As for `Cc1cnccc1-c1cc2nc(-c3ccc(C(F)F)cc3)[nH]c2cc1F` [Compound 11, 2-(4-(difluoromethyl)phenyl)-5-fluoro-6-(3-methylpyridin-4-yl)-1H-benzo[d]imidazole], the negative logarithm of the IC50 (pIC50) was 9.85. Next, `Cc1nc(N)ncc1-c1cc2nc(-c3ccc(S(=O)(=O)N(C)C)cc3)[nH]c2c(Cl)c1F` [Compound 35, 4-(6-(2-amino-4-methylpyr-imid-5-yl)-4-chloro-5-fluoro-1H-benzo[d]imidazol-2-yl)-N,N-dimethylbenzenesulfon-amide]: 10.35; `COc1ccc(-c2nc3cc(-c4ccncc4Cl)c(F)cc3[nH]2)cc1F` [Compound 2, 6-(3-chloropyridin-4-yl)-5-fluoro-2-(3-fluoro-4-meth-oxyphenyl)-1H-benzo[d] imidazole]: 7.96; `Cc1cc(N)ncc1-c1cc2[nH]c(-c3ccc(S(=O)(=O)N(C)C)cc3)nc2c(F)c1F` [Compound 45, 4-(6-(6-amino-4-methylpyr-idin-3-yl)-4,5-difluoro-1H-benzo[d]imidazol-2-yl)-N,N-dimethylbenzenesulfonamide]: 10.48. Next, `Cc1ncc(-c2cc3nc(-c4ccc(S(C)(=O)=O)cc4)[nH]c3cc2Cl)c(Cl)n1` [Compound 4, 5-chloro-6-(4-chloro-2-meth-ylpyrimid-5-yl)-2-(4-(methyl-sulfonyl)phenyl)-1H-benzo[d] imidazole]: 9.00. With `Fc1c(-c2cnc(N3CCOCC3)nc2C(F)F)cc2[nH]c(-c3ccc(C(F)(F)F)cc3)nc2c1F` [Compound 74] the figure was 9.77; with `CC(C)n1nc(N)cc1-c1cc2[nH]c(-c3ccc(S(=O)(=O)N(C)C)cc3)nc2cc1F` [Compound 60, 4-(6-(1-isopropyl-3-amino-1H-pyrazol-5-yl)-5-fluoro-1H-benzo[d]imidazol-2-yl)-N,N-dimethylbenzenesulfonamide], 10.24. The compound `Cc1ncc(-c2cc3nc(-c4ccc(S(=O)(=O)N(C)C)cc4)[nH]c3c(F)c2F)c(Cl)n1` [Compound 28, 4-(6-(4-chloro-2-methylpyr-imid-5-yl)-4,5-difluoro-1H-benzo[d]imidazol-2-yl)-N,N-dimethylbenzenesulfonamide] showed a negative-log IC50 (pIC50) of 10.34. With `CN(C)S(=O)(=O)c1ccc(-c2nc3cc(-c4cncnc4C(F)(F)F)c(F)cc3[nH]2)cc1` [Compound 33, 4-(5-fluoro-6-(4-(trifluoro-methyl)pyrimid-5-yl)-1H-benzo [d]imidazol-2-yl)-N,N-dimeth-ylbenzenesulfonamide] the figure was 9.82; with `CNc1nc(C)ncc1-c1cc2nc(-c3ccc(C(F)(F)F)cc3)[nH]c2cc1F` [Compound 7, 5-(5-fluoro-2-(4-(trifluoro-methyl)phenyl)-1H-benzo[d]imidazol-6-yl)-N,2-dimethyl-pyrimidine-4-amine], 9.96; with `Cc1[nH]c(=O)ccc1-c1cc2nc(-c3ccc(S(=O)(=O)N(C)C)cc3)[nH]c2cc1F` [Compound 41, 4-(5-fluoro-6-(2-methyl-6-oxo-1,6-dihydropyridin-3-yl)-1H-benzo[d]imidazol-2-yl)-N,N-dimethylbenzenesulfon-amide], 9.64.

`CN(C)S(=O)(=O)c1ccc(-c2nc3c(F)c(F)c(-c4cnc(N)cc4Cl)cc3[nH]2)cc1` [Compound 57, 4-(6-(6-amino-4-chloropyri-din-3-yl)-4,5-difluoro-1H-benzo[d]imidazol-2-yl)-N,N-dimethylbenzenesulfonamide] had a pIC50 of 10.44. With `Fc1c(-c2ccnn2C2CC2)cc2[nH]c(-c3ccc(C(F)(F)F)cc3)nc2c1F` [Compound 75, 2-(4-(trifluoromethyl)phenyl)-6-(1-cyclopropyl-1H-pyrazol-5-yl)-4,5-difluoro-1H-benzo [d]imidazole] the figure was 10.09; with `CC(=O)n1nc(C)c(-c2cc3nc(-c4ccc(C(F)(F)F)cc4)[nH]c3cc2F)c1C` [Compound 23, 1-(4-(6-fluoro-2-(4-(trifluoro-methyl)phenyl)-1H-benzo[d]imidazol-5-yl)-3,5-dimethyl-1H-pyrazol-1-yl)ethan-1-one], 9.54. Next, `Cc1nc(N)ncc1-c1cc2nc(-c3ccc(S(=O)(=O)N(C)C)cc3)[nH]c2c(F)c1Cl` [Compound 31, 4-(6-(2-amino-4-methylpyr-imid-5-yl)-5-chloro-4-fluoro-1H-benzo[d]imidazol-2-yl)-N,N-dimethylbenzenesulfon-amide]: 10.07; `CN(C)S(=O)(=O)c1ccc(-c2nc3cc(-c4cnc(N)cc4Cl)c(F)cc3[nH]2)cc1` [Compound 40, 4-(6-(6-amino-4-chloropyr-idin-3-yl)-5-fluoro-1H-benzo [d]imidazol-2-yl)-N,N-dimeth-ylbenzenesuIfonamide]: 10.20; `Cc1ccncc1-c1cc2[nH]c(-c3ccc(S(=O)(=O)N(C)C)cc3)nc2cc1F` [Compound 55, 4-(6-(4-methylpyridin-3-yl)-5-fluoro-1H-benzo[d]imidazol-2-yl)-N,N-dimethylbenzene-sulfonamide]: 10.00. Next, `Cc1nc(N2CCOCC2)ncc1-c1cc2nc(-c3ccc(S(=O)(=O)N(C)C)cc3)[nH]c2cc1F` [Compound 26, 4-(5-fluoro-6-(4-methyl-2-morpholinopyrimid-5-yl)-1H-benzo[d]imidazol-2-yl)-N,N-dimethylbenzenesulfonamide]: 10.09.

The values are drawn from patent US20260297065A1, “AROMATIC SUBSTITUENT-CONTAINING (HETERO) ARYL-IMIDAZOLE COMPOUND, AND PREPARATION METHOD THEREFOR AND USE THEREOF” (OPEN SOURCE THERAPEUTICS, priority 2022, published 2026).
